Measurements taken from US10054581B1, “Inhibitors of notch signaling pathway and use thereof in treatment of cancers” (Ecole Polytechnique Federale de Lausanne (EPFL), priority 2011, dated 2018).
Entries after “also recorded” stand apart in the source; their conditions may differ.

Assays:
CUTL1 = experiment: Annexin V apoptosis, CUTL1; assay type: cell-based, human; conditions: 10 μM, 7 days
Description: FIGS. 6A-6D show 6-(4-Tert-Butylphenoxy)Pyridin-3-Amine (I3) induces G0/G1 cell cycle arrest and apoptosis in human T cell acute lymphoblastic leukemia cell lines and human breast cancer cell line HCC1187. […] Percentage of Annexin V positive (apoptotic) cell population was measured using flow cytometry.
To quantitate the percentage of apoptotic cells, AnnexinV and 7AAD staining was performed. Thymic cells were suspended in 300 μl of 1× AnnexinV binding buffer (BD Biosciences, San Diego, USA) and incubated with 10 μl of AnnexinV-Cy5 antibody and 10 μl of 7AAD (BD Biosciences, San Diego, USA). Samples were incubated for 15 minutes at room temperature. FACS was performed with in one hour of antibody staining.
This 6-(4-Tert-Butylphenoxy)Pyridin-3-Amine (I3) mediated proliferative arrest could be due to induction of apoptosis or cell cycle arrest during different phases of cell cycle. […] Therefore to further elucidate the mechanisms responsible for 6-(4-Tert-Butylphenoxy)Pyridin-3-Amine (I3) mediated proliferative arrest cell cycle and apoptosis analyses were carried out. […] To investigate cell death, Annexin V staining was performed and proportion of apoptotic (AnnexinV positive) cell population was determined by flow cytometry analyses after 7 days of treatment.

[1] = tested on: NICD/MAML1 Notch transcriptional activation complex; experiment: MAML1 rescue: HeLa cells co-transfected with NICD and MAML1-FLAG, 12×CSL luciferase; assay type: cell-based; conditions: 24 hours
Description: HeLa cells were co-transfected 800 ng of NICD+3 μg of pCDNA3.1 or 800 ng of NICD+1 μg of MAML1-FLAG or 800 ng of NICD+3 μg of MAML1-FLAG expression vectors. To measure Notch pathway activation, pGL4.26-12×CSL luciferase plasmid was also introduced into the cells. SV40 renilla was used as an internal control. Cells transfected with different combinations and amounts of plasmid were treated with DMSO or increasing concentration of 6-(4-Tert-Butylphenoxy)Pyridin-3-Amine (I3) (1, 2.5, 5 and 10 μM) for 24 hours. 12×CSL driven luciferase activity was measured using dual luciferase assay system.
NICD-GFP overexpression studies were performed using pEGFP-C1-NICD expression plasmid. The FLAG-CMV2 plasmid expressing MAML1-FLAG was a kind gift from Dr. Lizi Wu, Harvard Medical School, Boston.
To further investigate the mechanism of action of 6-(4-Tert-Butylphenoxy)Pyridin-3-Amine (I3), Applicants speculated that 6-(4-Tert-Butylphenoxy)Pyridin-3-Amine (I3) might be targeting one of the components of the transcriptional activation complex. The over expression of this target protein may titrate out 6-(4-Tert-Butylphenoxy)Pyridin-3-Amine (I3) compound and thus rescue 6-(4-Tert-Butylphenoxy)Pyridin-3-Amine (I3) induced pathway inhibition. […] The Notch pathway activation was measured by introducing 12×CSL luciferase plasmid. […]

## CC(C)(C)c1ccc(Oc2ccc(N)cn2)cc1 [I3, 6-(4-Tert-Butylphenoxy)Pyridin-3-Amine]
CUTL1
  apoptosis (Annexin V positive cells): induces significant apoptosis
[1]; 800 ng NICD + 1 μg MAML1-FLAG, I3 1-10 μM
  Notch signalling, NICD + 1 μg MAML1: can block Notch signalling in a concentration dependent manner
[1]; 800 ng NICD, I3 1, 2.5, 5 and 10 μM
  Notch signalling, NICD alone (no MAML1): can block Notch signalling in a concentration dependent manner; also recorded: could block Notch signalling activations
